Laboratory results as given in patent US4192944A, “Optionally substituted 4-oxo-4H-pyrido[1,2-a]pyrimidine-3-N-(1H-tetrazol-4-yl)carboxamides and their use as antiallergy agents” (priority 1978, dated 1980).
Where two headings read alike, the source gives them in different places.

Legend:
[1] = cited from earlier work
[2] = must be administered by inhalation; cited from earlier work
[3] = system: reagin-mediated Passive Cutaneous Anaphylaxis (PCA); assay: reagin-mediated rat Passive Cutaneous Anaphylaxis (PCA) screening test; format: in vivo
Description: The reagin-mediated rat Passive Cutaneous Anaphylaxis (PCA) screening test used to evaluate the present compounds is generally regarded as one of the best animal models for use in predicting the antiallergy activity of test compounds in man. This screen provides a measure of the effectiveness of test compounds in either inhibiting the release or antagonizing the action of mediators arising from the interaction of reaginic antibodies with specific antigen, mediators which are causative factors in allergic disorders. The details of the test are fully described in U.S. Pat. No. 4,031,093.
The test compounds were solubilized in aqueous sodium bicarbonate and administered intravenously (i.v.) or per os (p.o.) either one or ten minutes, respectively, prior to antigen challenge. Disodium cromoglycate (DSCG), solubilized in saline, was administered i.v. at the time of challenge and p.o 30 minutes prior to challenge.

[4] = system: release of mediators, e.g. histamine and SRS-A; conditions: administered to asthmatic patients prior to inhalation of specific antigens; cited from earlier work
[5] = po, in aqueous sodium bicarbonate, ten minutes prior to antigen challenge, read-out: ID50 p.o. (dose of compound that inhibits 50% of the response)

**Q.** For O=C(O)c1cc(=O)c2c(OCC(O)COc3cccc4oc(C(=O)O)cc(=O)c34)cccc2o1 [DSCG, Disodium cromoglycate], which side effects ([1]; in vivo) is on record?
**A.** without cardiovascular side effects

**Q.** What about the oral absorption [2] of the same compound?
**A.** not orally absorbed

**Q.** What about the ED50 ([3]; iv, DSCG, i.v., in saline, at the time of challenge, read-out: ID50 i.v. (dose of compound that inhibits 50% of the response)) of the same compound?
**A.** 0.6 mg/kg

**Q.** And the ED50 ([3]; po, DSCG, p.o., in saline, 30 minutes prior to challenge, read-out: ID50 p.o. (dose of compound that inhibits 50% of the response))?
**A.** > 30 mg/kg

**Q.** And the “inhibition of release of mediators (histamine, SRS-A)” value [4]?
**A.** inhibits the release of mediators

**Q.** With O=C(Nc1nnn[nH]1)c1cnc2ccccn2c1=O [Example 1, 4-Oxo-4H-pyrido[1,2-a]pyrimidine-3-N-(1H-tetrazol-5-yl)carboxamide] as the compound, how does the ED50 [3, 5] read?
**A.** 0.2 mg/kg

**Q.** Which results are given for Cc1cccn2c(=O)c(C(=O)Nc3nnn[nH]3)cnc12 [Example 2, 9-Methyl-4-oxo-4H-pyrido[1,2-a]pyrimidine-3-N-(1H-tetrazol-5-yl)carboxamide]?
**A.** ED50 ([3]; iv, in aqueous sodium bicarbonate, one minute prior to antigen challenge, read-out: ID50 i.v. (dose of compound that inhibits 50% of the response)): 0.04 mg/kg; ED50 [3, 5]: 0.1 mg/kg

**Q.** For CCc1cccn2c(=O)c(C(=O)Nc3nnn[nH]3)cnc12 [Example 3, 9-Ethyl-4-oxo-4H-pyrido[1,2-a]pyrimidine-3-N-(1H-tetrazol-5-yl)carboxamide], which ED50 [3, 5] is on record?
**A.** 0.1 mg/kg

**Q.** With CN1[C@@H]2CC[C@H]1C[C@@H](OC(=O)C(CO)c1ccccc1)C2 (stereo partly shown) [atropine] as the compound, how does the side effects ([1]; treatment of bronchial asthma) read?
**A.** cardiac stimulation and gastrointestinal distress

**Q.** Which side effects ([1]; treatment of bronchial asthma) does the source give for CNC[C@H](O)c1ccc(O)c(O)c1 [epinephrine] here?
**A.** cardiac stimulation and gastrointestinal distress

**Q.** For CC(C)NCC(O)c1ccc(O)c(O)c1 (stereo not shown) [isoproterenol], which side effects ([1]; treatment of bronchial asthma) is on record?
**A.** cardiac stimulation and gastrointestinal distress

**Q.** Which side effects ([1]; in vivo) does the source give for Cn1c(=O)c2[nH]cnc2n(C)c1=O [theophylline] here?
**A.** cardiac stimulation and gastrointestinal distress
